The record followed here is ChEMBL document CHEMBL1141511, “4,4-Dimethyl-1,2,3,4-tetrahydroquinoline-based PPARalpha/gamma agonists. Part I: synthesis and pharmacological evaluation” (Bioorg Med Chem Lett, 2008).

In test [1] the target is T1, Peroxisome proliferator-activated receptor alpha (Homo sapiens) (UniProt Q07869).
T1 sequence (whole entry): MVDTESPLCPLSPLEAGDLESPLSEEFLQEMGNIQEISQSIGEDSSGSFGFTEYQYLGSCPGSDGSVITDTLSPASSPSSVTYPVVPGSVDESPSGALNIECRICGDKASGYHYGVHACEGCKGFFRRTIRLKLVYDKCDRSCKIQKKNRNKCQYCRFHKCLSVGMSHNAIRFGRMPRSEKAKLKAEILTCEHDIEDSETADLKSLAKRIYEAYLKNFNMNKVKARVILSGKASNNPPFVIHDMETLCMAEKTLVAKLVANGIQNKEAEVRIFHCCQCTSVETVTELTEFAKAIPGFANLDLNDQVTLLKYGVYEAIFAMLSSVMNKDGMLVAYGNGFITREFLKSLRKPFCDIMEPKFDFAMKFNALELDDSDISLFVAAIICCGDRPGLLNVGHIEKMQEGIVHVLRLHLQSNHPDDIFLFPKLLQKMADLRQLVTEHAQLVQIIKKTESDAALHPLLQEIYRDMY
The test can be described thus: (§1) Agonist activity at human PPARalpha by GAL4 transactivation assay. The test is classed as functional.

The target in test [2] is T2, Peroxisome proliferator-activated receptor gamma (Homo sapiens, UniProt P37231).
T2 sequence (P37231 whole entry): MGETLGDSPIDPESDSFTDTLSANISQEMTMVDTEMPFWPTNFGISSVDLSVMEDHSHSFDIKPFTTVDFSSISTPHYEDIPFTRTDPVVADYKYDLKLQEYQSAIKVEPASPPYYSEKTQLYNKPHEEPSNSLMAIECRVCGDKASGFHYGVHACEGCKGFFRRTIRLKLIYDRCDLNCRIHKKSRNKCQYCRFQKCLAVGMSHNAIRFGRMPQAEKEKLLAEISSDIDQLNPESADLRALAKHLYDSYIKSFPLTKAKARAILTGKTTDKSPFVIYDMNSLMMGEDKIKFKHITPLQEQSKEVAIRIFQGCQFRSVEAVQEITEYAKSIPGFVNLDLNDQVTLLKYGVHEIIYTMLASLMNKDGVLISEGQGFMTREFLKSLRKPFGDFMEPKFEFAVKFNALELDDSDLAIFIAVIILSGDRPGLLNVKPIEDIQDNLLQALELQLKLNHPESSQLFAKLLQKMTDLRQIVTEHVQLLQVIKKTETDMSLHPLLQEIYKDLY

The target of test [3] is T3, Peroxisome proliferator-activated receptor alpha (Homo sapiens, UniProt Q07869).
T3 sequence (Q07869 whole entry): T1 sequence (whole entry)
The description is as §1. The test is classed as functional.

Activity calls are given as the source filed them. The calls are words filed in the database; no cut-off is given here.

`COC(=O)C(Cc1ccc(OCCN2CCC(C)(C)c3cc(/C(=N\O)c4ccccc4)ccc32)cc1)C(=O)OC`: in test [1], the outcome was inactive. The same compound yielded an inhibition constant (Ki) in test [2] of 10000 nM.
Take `COC(=O)C(Cc1ccc(OCCN2CCC(C)(C)c3cc(C(=O)c4ccccc4)ccc32)cc1)C(=O)OC`: the outcome in test [1] was inactive. Also, the affinity in test [2] corresponds to a Ki of 10000 nM.
In turn, `CCOC(=O)C(Cc1ccc(OCCN2CCC(C)(C)c3cc(/C(=N\O)c4ccccc4)ccc32)cc1)OCC` (stereo not drawn) yielded a half-maximal effective concentration (EC50) in test [3] of 189 nM. For the same compound, in test [2], the inhibitory constant (Ki) stood at 618 nM.
The corresponding values for `CCO[C@@H](Cc1ccc(OCCc2ccc(OS(C)(=O)=O)cc2)cc1)C(=O)O` [TESAGLITAZAR] are 414 nM and 18 nM.

What is called Ki is the equilibrium dissociation constant of an inhibitor or competing ligand from its target. High values mean a looser hold on the target, low ones a stronger hold on the target. One may read the EC50 as the concentration needed to bring the measured effect to its halfway point.
